From patent US20210255193A1, “LYSINE REACTIVE PROBES AND USES THEREOF” (The Scripps Research Institute, priority 2017, published 2021)
Each block holds one compound with its values, some of them ahead of it.

Tests used:
Test in all cases: competitive isoTOP-ABPP
Assay type in all cases: binding
[1] = biological target: T1, TSTA3 GDP-L-fucose synthase (Homo sapiens, UniProt Q13630); conditions: for R value (DMSO/fragment) for probe 1 labeling: Q13630_K108; for R value (DMSO/fragment) for probe 1 labeling / isoTOP-ABPP reactivity ratio at lysine Q13630_K108 / isoTOP-ABPP ratio (R) at liganded lysine Q13630_K108: 50 uM, in vitro; for R value (DMSO/fragment) for probe 1 labeling / isoTOP-ABPP reactivity ratio at lysine Q13630_K108: 231 sol; for isoTOP-ABPP ratio (R) at liganded lysine Q13630_K108: sol, 231
T1 construct: isoTOP-ABPP experiments performed in cell lysates (in vitro); endogenous in cells; host or cells: soluble proteome of human cancer cell lines (MDA-MB-231, Ramos, Jurkat)
T1 sequence (Q13630 whole entry, the tested form may be a part): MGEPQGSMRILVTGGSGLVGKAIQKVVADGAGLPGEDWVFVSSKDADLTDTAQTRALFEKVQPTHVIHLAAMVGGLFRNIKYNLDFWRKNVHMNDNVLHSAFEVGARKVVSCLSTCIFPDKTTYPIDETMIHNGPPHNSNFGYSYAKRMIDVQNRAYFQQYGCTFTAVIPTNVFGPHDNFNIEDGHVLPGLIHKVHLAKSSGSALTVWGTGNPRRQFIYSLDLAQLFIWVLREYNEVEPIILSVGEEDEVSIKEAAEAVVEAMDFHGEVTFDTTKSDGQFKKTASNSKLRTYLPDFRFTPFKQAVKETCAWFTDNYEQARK
Outline: (§1)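 Lysine engagement is reported as R, the MS1 peak-area ratio of heavy-tagged DMSO to light-tagged compound samples. Final fragment concentrations were 50 μM for activated esters and 100 μM for guanidinylating agents; STP-alkyne probe 0.1 mM, 1 h.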

[2] = biological target: T2, AKR1C3 Aldo-keto reductase family 1 member C3 (Homo sapiens, UniProt P42330); conditions: for isoTOP-ABPP reactivity ratio at lysine P42330_K270 / isoTOP-ABPP ratio (R) at liganded lysine P42330_K270: 50 uM, in vitro; for isoTOP-ABPP reactivity ratio at lysine P42330_K270: 231 sol; for isoTOP-ABPP ratio (R) at liganded lysine P42330_K270: sol, 231
T2 construct: isoTOP-ABPP experiments performed in cell lysates (in vitro); endogenous in cells; host or cells: soluble proteome of human cancer cell lines (MDA-MB-231; Ramos and Jurkat also prepared)
T2 sequence (P42330 1-323): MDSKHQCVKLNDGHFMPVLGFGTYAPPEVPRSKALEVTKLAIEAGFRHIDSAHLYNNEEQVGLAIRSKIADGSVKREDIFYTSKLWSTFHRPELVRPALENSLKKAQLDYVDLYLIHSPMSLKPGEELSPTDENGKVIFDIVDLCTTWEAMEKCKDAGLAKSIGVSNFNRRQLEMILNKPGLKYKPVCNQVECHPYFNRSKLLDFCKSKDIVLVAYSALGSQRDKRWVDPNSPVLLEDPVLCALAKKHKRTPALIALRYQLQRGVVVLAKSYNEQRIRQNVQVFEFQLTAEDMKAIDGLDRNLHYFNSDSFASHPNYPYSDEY
Outline: as §1

[3] = biological target: T3, ARL6IP1 ADP-ribosylation factor-like protein 6-interacting (Homo sapiens, UniProt Q15041); conditions: for isoTOP-ABPP ratio (R) at liganded lysine Q15041_K188: sol, 231
T3 construct: isoTOP-ABPP experiments performed in cell lysates (in vitro); endogenous in cells; host or cells: soluble proteome of human cancer cell lines (MDA-MB-231; Ramos and Jurkat also prepared)
T3 sequence (Q15041 whole entry): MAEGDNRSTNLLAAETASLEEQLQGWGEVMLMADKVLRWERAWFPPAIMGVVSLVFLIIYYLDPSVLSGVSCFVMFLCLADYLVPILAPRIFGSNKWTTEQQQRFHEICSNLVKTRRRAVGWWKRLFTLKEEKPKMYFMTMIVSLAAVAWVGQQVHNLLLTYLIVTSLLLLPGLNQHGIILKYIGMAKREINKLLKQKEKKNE
Outline: as §1

[4] = biological target: T4, NUDT22 Nucleoside diphosphate-linked moiety X motif 22 (Homo sapiens, UniProt Q9BRQ3); conditions: for isoTOP-ABPP ratio (R) at liganded lysine Q9BRQ3_K60 / isoTOP-ABPP reactivity ratio at lysine Q9BRQ3_K60: 50 uM, in vitro; for isoTOP-ABPP ratio (R) at liganded lysine Q9BRQ3_K60: sol, 231; for isoTOP-ABPP reactivity ratio at lysine Q9BRQ3_K60: 231 sol
T4 construct: isoTOP-ABPP experiments performed in cell lysates (in vitro); endogenous in cells; host or cells: soluble proteome of human cancer cell lines (MDA-MB-231; Ramos and Jurkat also prepared)
T4 sequence (Q9BRQ3 1-303): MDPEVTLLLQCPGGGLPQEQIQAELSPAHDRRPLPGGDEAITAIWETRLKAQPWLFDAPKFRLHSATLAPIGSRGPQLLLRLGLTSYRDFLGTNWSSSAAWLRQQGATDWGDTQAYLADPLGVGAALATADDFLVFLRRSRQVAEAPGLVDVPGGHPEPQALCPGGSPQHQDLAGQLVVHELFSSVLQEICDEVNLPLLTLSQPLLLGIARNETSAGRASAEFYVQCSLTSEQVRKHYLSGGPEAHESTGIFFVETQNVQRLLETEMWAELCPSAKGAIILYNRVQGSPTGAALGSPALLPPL
Outline: as §1

[5] = biological target: T5, ERO1L ERO1-like protein alpha (Homo sapiens, UniProt Q96HE7); conditions: 50 uM, in vitro
T5 construct: isoTOP-ABPP experiments performed in cell lysates (in vitro); endogenous in cells; host or cells: soluble proteome of human cancer cell lines (MDA-MB-231; Ramos and Jurkat also prepared)
T5 sequence (Q96HE7 24-468): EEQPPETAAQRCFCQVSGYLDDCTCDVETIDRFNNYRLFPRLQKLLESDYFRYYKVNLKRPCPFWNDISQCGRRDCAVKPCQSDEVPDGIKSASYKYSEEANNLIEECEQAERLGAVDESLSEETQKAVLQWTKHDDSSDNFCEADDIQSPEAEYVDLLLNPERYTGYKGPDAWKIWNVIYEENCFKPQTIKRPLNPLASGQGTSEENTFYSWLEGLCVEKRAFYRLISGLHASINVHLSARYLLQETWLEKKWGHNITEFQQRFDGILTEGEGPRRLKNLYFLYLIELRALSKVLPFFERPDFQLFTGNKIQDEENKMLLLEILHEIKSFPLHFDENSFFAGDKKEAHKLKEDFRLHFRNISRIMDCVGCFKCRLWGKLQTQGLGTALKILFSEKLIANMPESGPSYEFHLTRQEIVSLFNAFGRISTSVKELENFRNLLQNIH
Outline: as §1

- R value (DMSO/fragment) for probe 1 labeling [1]: 1.1
Compound: Cn1cc(CC(=O)Oc2c(F)c(F)c(F)c(F)c2F)c2ccccc21 [fragment 22, Pentafluorophenyl 2-(1-methyl-1H-indol-3-yl)acetate]

Compound: COc1cc(CCC(=O)Oc2ccc([N+](=O)[O-])cc2[N+](=O)[O-])cc(OC)c1OC [fragment 33, 2,4-Dinitrophenyl 3-(3,4,5-trimethoxyphenyl)propanoate]
- isoTOP-ABPP reactivity ratio at lysine Q13630_K108 [1]: 1.2
- isoTOP-ABPP reactivity ratio at lysine P42330_K270 [2]: 1.0
- isoTOP-ABPP reactivity ratio at lysine Q15041_K188 ([3]; 50 uM, 231 sol, in vitro): 1.3

Compound: O=C(CCc1ccc2c(c1)OCO2)Oc1ccc([N+](=O)[O-])cc1[N+](=O)[O-] [fragment 45, 2,4-Dinitrophenyl 3-(benzo[d][1,3]dioxol-5-yl)propanoate]
- isoTOP-ABPP ratio, lysine Q13630_K108 ([1]; 50 uM_231_sol_in vitro): 20.0
- isoTOP-ABPP ratio, lysine P42330_K270 ([2]; 50 uM_231_sol_in vitro, possible other lysine P52895_K270, P17516_K270, Q04828_K270): 0.8
- isoTOP-ABPP ratio, lysine Q15041_K188 ([3]; 50 uM_231_sol_in vitro): 2.2
- isoTOP-ABPP ratio, lysine Q9BRQ3_K60 ([4]; 50 uM_231_sol_in vitro): 1.7

- R value (DMSO/fragment) for probe 1 labeling [1]: 1.0
Compound: COc1cc(CCC(=O)Oc2c(F)c(F)c(F)c(F)c2F)cc(OC)c1OC [fragment 23, Pentafluorophenyl 3-(3,4,5-trimethoxyphenyl)propanoate]

Compound: O=C(Oc1ccc([N+](=O)[O-])cc1[N+](=O)[O-])c1ccccc1Nc1cccc(C(F)(F)F)c1 [fragment 40, 2,4-Dinitrophenyl 2-((3-(trifluoromethyl)phenyl)amino)benzoate]
- isoTOP-ABPP ratio (R) at liganded lysine Q13630_K108 [1]: 0.9
- isoTOP-ABPP ratio (R) at liganded lysine P42330_K270 [2]: 2.2
- isoTOP-ABPP ratio (R) at liganded lysine Q9BRQ3_K60 [4]: 0.9

Compound: O=C(Oc1ccc([N+](=O)[O-])cc1[N+](=O)[O-])c1ccc(Oc2ccccc2)cc1 [fragment 39, 2,4-Dinitrophenyl 4-phenoxybenzoate]
- isoTOP-ABPP ratio (R) at liganded lysine P42330_K270 [2]: 0.8
- isoTOP-ABPP ratio (R) at liganded lysine Q15041_K188 ([3]; 50 uM, in vitro): 1.7
- isoTOP-ABPP ratio (R) at liganded lysine Q9BRQ3_K60 [4]: 0.9

- isoTOP-ABPP reactivity ratio at lysine Q9BRQ3_K60 [4]: 0.8
Compound: O=C(Oc1c(F)c(F)c(F)c(F)c1F)c1ccc2ccccc2n1 [fragment 25, Pentafluorophenyl quinoline-2-carboxylate]

Compound: O=C(Oc1ccc([N+](=O)[O-])cc1[N+](=O)[O-])C(c1ccccc1)c1ccccc1 [fragment 30, 2,4-Dinitrophenyl 2,2-diphenylacetate]
- isoTOP-ABPP reactivity ratio at lysine Q96HE7_K413 ([5]; 231 sol): 1.2

Compound: O=C(Oc1ccc([N+](=O)[O-])cc1[N+](=O)[O-])c1cc(C(F)(F)F)cc(C(F)(F)F)c1 [fragment 31, 2,4-Dinitrophenyl 3,5-bis(trifluoromethyl)benzoate]
- isoTOP-ABPP reactivity ratio at lysine Q9BRQ3_K60 [4]: 1.1

- isoTOP-ABPP reactivity ratio at lysine Q13630_K108 [1]: 4.6
- isoTOP-ABPP reactivity ratio at lysine P42330_K270 [2]: 2.7
- isoTOP-ABPP reactivity ratio at lysine Q9BRQ3_K60 [4]: 1.2
Compound: O=C(CN1C(=O)c2ccccc2C1=O)Oc1c(F)c(F)c(F)c(F)c1F [fragment 27, Pentafluorophenyl 2-(1,3-dioxoisoindolin-2-yl)acetate]

Compound: CC(=O)Oc1ccc([N+](=O)[O-])cc1[N+](=O)[O-] [fragment 43, 2,4-Dinitrophenyl acetate]
- isoTOP-ABPP ratio (R) at liganded lysine Q96HE7_K413 ([5]; sol, 231): 2.0
- isoTOP-ABPP ratio (R) at liganded lysine Q15041_K188 ([3]; 50 uM, in vitro): 1.4

Compound: O=C(Oc1ccc([N+](=O)[O-])cc1[N+](=O)[O-])C(c1ccccc1)(c1ccccc1)c1ccccc1 [fragment 42, 2,4-Dinitrophenyl 2,2,2-triphenylacetate]
- isoTOP-ABPP ratio (R) at liganded lysine Q13630_K108 [1]: 1.0
- isoTOP-ABPP ratio (R) at liganded lysine P42330_K270 [2]: 0.9
- isoTOP-ABPP ratio (R) at liganded lysine Q15041_K188 ([3]; 50 uM, in vitro): 1.1
- isoTOP-ABPP ratio (R) at liganded lysine Q9BRQ3_K60 [4]: 0.8
